The values that follow come from patent US10100048B2, “Heterocyclic compounds and their use as glycogen synthase kinase-3 inhibitors” (AbbVie Deutschland GmbH & Co. KG, priority 2010, dated 2018).

Where a name gives a salt, the structure may show the parent alone.

Chain of human Glycogen Synthase Kinase-3 beta (hGSK-3β) (P49841 whole entry): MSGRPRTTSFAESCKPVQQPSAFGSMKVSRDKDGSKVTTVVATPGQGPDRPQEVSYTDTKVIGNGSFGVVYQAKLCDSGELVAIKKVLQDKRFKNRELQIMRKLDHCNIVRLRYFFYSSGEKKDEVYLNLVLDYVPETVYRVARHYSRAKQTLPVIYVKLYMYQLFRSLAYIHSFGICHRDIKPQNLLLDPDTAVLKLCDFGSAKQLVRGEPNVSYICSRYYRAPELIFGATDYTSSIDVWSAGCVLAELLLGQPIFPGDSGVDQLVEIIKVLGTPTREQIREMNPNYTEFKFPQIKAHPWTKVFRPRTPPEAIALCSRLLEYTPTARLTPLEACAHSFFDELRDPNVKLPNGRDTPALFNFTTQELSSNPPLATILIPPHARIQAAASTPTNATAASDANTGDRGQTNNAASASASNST

This test concerns the target human Glycogen Synthase Kinase-3 beta (hGSK-3β) (Homo sapiens (Human), UniProt P49841). In words: Biochemical hGSK-3Beta Assay (33P-ATP phosphorylation of biotinylated peptide substrate, Flash-plate). The conditions noted are these: 0.0125 U hGSK-3β, 10 μM ATP, 1 μM substrate, 30 minutes at room temperature; read-out: GSK-3β IC50. Here is the method:
Methods—Biochemical hGSK-3Beta Assay
Compounds were tested for their ability to inhibit human Glycogen Synthase Kinase-3 beta (hGSK-3β) to phosphorylate biotin-[…](pS)EDEEE. Compounds were incubated with 0.5 μCi 33P-ATP, 10 μM ATP, 0.0125 U hGSK-3β (Upstate cell signaling solutions) and 1 μM substrate (biotin-[…](pS)EDEEE) in 50 mM HEPES, 10 mM MgCl2, […], 1 mM DTT, 0.0075% Triton, 2% DMSO (total volume 50 μL) for 30 minutes at room temperature. The incubation was stopped by addition of an equal volume of 100 mM EDTA, 4M NaCl. 80 μL of this mixture was added to streptavidin-coated Flash-plates (PerkinElmer). Following a wash step, 33P incorporation was quantified on a MicroBeta microplate liquid scintillation counter (Perkin Elmer). IC50s were determined by fitting a sigmoidal dose-response curve to the counts obtained at the different concentrations in GraphPad Prism.
Usually IC50 stands for the concentration at which inhibition is half-maximal. In the case of `N#Cc1ccc2c(c1)C(c1ccc3c(n1)CCCC3O)C(=O)N2` (centres unmarked) [Example 1, 3-(5-Hydroxy-5,6,7,8-tetrahydroquinolin-2-yl)-2-oxoindoline-5-carbonitrile], the IC50 was less than 0.1 µM.

For the molecule `N#Cc1ccc2c(c1)C(c1ccc3c(n1)CCNC3)C(=O)N2` (centres unmarked) [Example 2, 2-Oxo-3-(5,6,7,8-tetrahydro-1,6-naphthyridin-2-yl)indoline-5-carbonitrile], the half-inhibitory concentration (IC50) is less than 0.1 µM.

As for `CC(C)(C)OC(=O)N1CCc2nc(C3C(=O)Nc4ccc(C#N)cc43)ccc2C1` (centres unmarked) [Example 2.2, tert-Butyl 2-(5-cyano-2-oxoindolin-3-yl)-7,8-dihydro-1,6-naphthyridine-6(5H)-carboxylate], the IC50 was less than 0.1 µM.

On to `N#Cc1ccc2c(c1)C(c1ccc3c(n1)CNC3)C(=O)N2` (centres unmarked) [Example 5, 3-(6,7-Dihydro-5H-pyrrolo[3,4-b]pyridin-2-yl)-2-oxoindoline-5-carbonitrile hydrochloride], for which the IC50 was less than 0.1 µM.

Turning to `COC1CCCc2nc(C3C(=O)Nc4ccc(C#N)cc43)ccc21` (centres unmarked) [Example 6, 3-(5-Methoxy-5,6,7,8-tetrahydroquinolin-2-yl)-2-oxoindoline-5-carbonitrile], the IC50 is less than 0.1 µM.
